Here are results for four compounds from patent EP0409227A2, “Pyrimidine nucleosides, their preparation and pharmaceutical preparations” (MATTHES, Eckart, Dr., priority 1989, dated 1991).

The test system of one data set is MT4 Zellen. The data set is described as follows: Cytotoxicity: inhibition of proliferation of MT4 cells. The class given is cell-based. As to the method:
(§1) Unter dem Aspekt einer möglichen Anwendung der Verbindungen am Menschen wurden ihre antiproliferativen Wirkungen an menschlichen Zellkulturen wie früher beschrieben getestet (E. Matthes et al. Biochem.Biophys.Res.Commun. 153, 825 (1988)). Dabei zeigte sich, daß z.B. 2′,3′-Didesoxy-3-fluor-5-methylcytidin gegenüber der T-Zellinie MT4 eine CD₅₀ von 190 µM aufweist. In einem weiteren Test, in dem eine mögliche Wachstumshemmung koloniebildender Zellen des Knochenmarks der Maus (CFU-GM) untersucht wurde (E. Matthes et al. Biochem.Biophys.Res.Commun. 165, 488 (1989), erwies sich diese Verbindung ebenfalls als kaum proliferationshemmend (CD₅₀ > 500 µM). Die Wirkung weiterer Verbindungen auf die Proliferation von MT4-Zellen ist in Tabelle 3 zusammengefaßt. Tabelle 3

Data set [1] has as its system HBsAg-Sekretion von Hep G2 (2.2.15)-Zellen. The data set is described as follows: Inhibition of HBsAg secretion of Hep G2 (2.2.15) cells (solid-phase radioimmunoassay of the medium). The class given is cell-based, HBV. As to the method:
(§2) Die Testung der antiviralen Wirksamkeit der Nucleoside auf zelluärer Ebene erfolgte an einer menschlichen Hepatoblastom-Zellinie, die mit dem HBV-Genom tranfiziert wurde und sowohl das Oberflächenantigen des Virus (HBsAg) als auch die HBV-DNA permanent produziert und infektiöse Viruspartikel in das Medium abgibt (Hep G2-Zellen, Klon 2.2.15, Sells et al. Proc.Natl.Acad. Sci. 84, 1005 (1987)). Die Zellen (5x10⁵/ml) wurden in RPMI 1640-Medium mit 2 mM Glutamin und 10% fetalem Kälberserum allein oder zusammen mit den Nucleosid-Analoga für 4 Tage inkubiert, danach wurden den Ansätzen für 24 Stunden ³H-Thymidin bzw. ³H-Desoxyadenosin (3 µCi/ml) zugesetzt, die Zellen abzentrifugiert und darin die säureunlösliche Radioaktivität und damit der Einfluß auf die DNA-Synthese bestimmt. Im Inkubationsmedium wurde das HBsAg durch Festphasenradioimmunoassay (Travenol-Genentech Diagnostics, Cambridge, MA) entsprechend den Instruktionen des Herstellers ermittelt. Die Tabelle 4 faßt die Ergebnisse zusammen, die belegen, daß die getesteten Verbindungen hochwirksame und selektive Hemmstoffe der HBV-Vermehrung sind.

For the next data set, the system named is Hep G2 (2.2.15)-Zellen. Put plainly: DNA synthesis of Hep G2 (2.2.15) cells (acid-insoluble radioactivity after 3H-thymidine or 3H-deoxyadenosine). In kind it is cell-based, menschlichen. To be noted: 4 days, then 24 h label, mean ± SD of five experiments. As to the method:
as §2

A further data set concerns the target T1, HBV-Polymerase (Hepatitis B virus genotype D subtype ayw, UniProt P03156).
T1 construct: Es wurde zunächst die Hemmbarkeit der HBV-assoziierten Polymerase; host or cells: virus-associated endogenous polymerase
The data set is described as follows: Inhibition of HBV polymerase activity by nucleoside triphosphate analogues (method of Kaplan et al.). To be noted: 50 % inhibition of HBV polymerase activity; 3 h incubation at 37 °C; read-out: ID₅₀. The class given is biochemical. From the text: Das Hepatitis B Virus (HBV) besitzt eine zirkuläre, partiell doppelsträngige DNA, welche nach Infektion einer Leberzelle durch eine viruseigene Polymerase repliziert wird. Dieser Vorgang setzt jedoch die Synthese einer RNA durch eine zelluläre RNA-Polymerase voraus. Nur diese RNA-Matrize - im Zusammenhang mit der Replikation auch als Prägenom bezeichnet - kann von der HBV-Polymerase für die Synthese zunächst eines RNA-DNA Hybrids und dann der doppelsträngigen DNA benutzt werden. Damit verfügt die HBV-Polymerase über eine enzymatische Aktivität, die der einer reversen Transcriptase ähnelt (Will et al., J.Virology 61, 904 (1987)). Es wurde zunächst die Hemmbarkeit der HBV-assoziierten Polymerase durch die 5′-Triphosphate der erfindungsgemäßen Verbindungen untersucht. Dazu wurde die von Kaplan et al. (J.Virology 12, 995 (1973)) angegebene Methode zur Bestimmung der HBV-Polymerase benutzt, wobei die zu testenden Triphosphate den Ansätzen in verschiedenen Konzentrationen zugesetzt wurden. Die Hemmung der Enzymreaktion wurde nach 3-stündiger Inkubation bei 37 °C durch Vergleich mit einem Kontrollwert ermittelt und daraus die Konzentration der zugesetzten Analoga bestimmt, die zu einer 50 %igen Hemmung der HBV-Polymerase-Aktivität führt (ID₅₀). Tabelle 1 zeigt die Ergebnisse, wobei insbesondere 2′,3′-Didesoxy-3′-fluor-5-methylcytidin durch einen Wert ID₅₀ von 0,03 µM herausragt und damit zu den stärksten bisher bekannten Hemmstoffen der HBV-Polymerase zu rechnen ist. Tabelle 1

For data set [2], the system named is koloniebildender Zellen des Knochenmarks der Maus (CFU-GM). The data set is described as follows: Growth inhibition of colony-forming bone marrow cells (CFU-GM). To be noted: mouse bone marrow. The class given is cell-based. The procedure: as §1
Where [3] appears, read: nucleoside 0,01 µM, 4 days + 24 h, mean ± SD of five experiments.
Where [4] appears, read: nucleoside 0,1 µM, 4 days + 24 h, mean ± SD of five experiments.
The mark [5] stands for this setting: nucleoside 0,01 µM, % of control without nucleoside (100).
The mark [6] stands for this setting: nucleoside 0,1 µM, % of control without nucleoside (100).
[7] abbreviates: nucleoside 0,03 µM, 4 days + 24 h, mean ± SD of five experiments.
Setting [8] is: nucleoside 0,3 µM, 4 days + 24 h, mean ± SD of five experiments.
[9] abbreviates: nucleoside 0,03 µM, % of control without nucleoside (100).
Where [10] appears, read: nucleoside 0,3 µM, % of control without nucleoside (100).
Setting [11] is: nucleoside 0,003 µM, 4 days + 24 h, mean ± SD of five experiments.
Where [12] appears, read: nucleoside 0,003 µM, % of control without nucleoside (100).
[13] abbreviates: nucleoside 1,0 µM, 4 days + 24 h, mean ± SD of five experiments.
[14] abbreviates: nucleoside 1,0 µM, % of control without nucleoside (100).
Setting [15] is: nucleoside 3,0 µM, 4 days + 24 h, mean ± SD of five experiments.
The mark [16] stands for this setting: nucleoside 3,0 µM, % of control without nucleoside (100).
The mark [17] stands for this setting: MT4 cells, 50 % inhibition of cell multiplication after 48 h.

T1 sequence (P03156 whole entry): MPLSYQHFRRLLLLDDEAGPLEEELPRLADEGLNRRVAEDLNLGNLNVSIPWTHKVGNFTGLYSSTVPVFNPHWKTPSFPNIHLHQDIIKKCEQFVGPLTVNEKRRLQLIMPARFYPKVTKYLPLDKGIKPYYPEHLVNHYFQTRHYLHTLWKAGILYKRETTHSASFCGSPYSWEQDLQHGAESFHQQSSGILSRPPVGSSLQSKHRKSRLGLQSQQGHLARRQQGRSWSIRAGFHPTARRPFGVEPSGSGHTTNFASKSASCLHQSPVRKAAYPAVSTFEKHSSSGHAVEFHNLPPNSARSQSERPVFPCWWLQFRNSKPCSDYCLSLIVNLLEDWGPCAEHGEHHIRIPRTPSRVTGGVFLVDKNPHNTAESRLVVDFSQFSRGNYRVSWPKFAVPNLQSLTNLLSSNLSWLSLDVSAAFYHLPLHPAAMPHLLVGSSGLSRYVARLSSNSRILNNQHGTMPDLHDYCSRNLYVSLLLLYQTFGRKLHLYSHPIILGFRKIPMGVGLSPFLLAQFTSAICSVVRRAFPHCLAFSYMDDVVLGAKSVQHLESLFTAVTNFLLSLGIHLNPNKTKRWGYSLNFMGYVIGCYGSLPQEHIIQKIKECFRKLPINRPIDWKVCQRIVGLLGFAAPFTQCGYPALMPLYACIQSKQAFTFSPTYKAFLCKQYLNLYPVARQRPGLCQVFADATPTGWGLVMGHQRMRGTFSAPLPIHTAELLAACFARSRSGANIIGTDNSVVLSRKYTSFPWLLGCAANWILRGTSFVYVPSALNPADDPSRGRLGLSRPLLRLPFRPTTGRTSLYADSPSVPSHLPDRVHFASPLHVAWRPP

As for `Nc1ncnc2c1ncn2[C@H]1C=C[C@@H](CO)O1` [2′,3′-Didehydro-2′,3′-didesoxyadenosin, 9-(2,3-Didesoxy-β-D-glycero-pent-2-enofuranosyl)adenin], the CD₅₀ with MT4 Zellen (human, 48 h) was found to be 48 µM. Also, the HBsAg is listed as 12,4 ± 1,8 ng/ml in data set [1] (setting [3]); 0,5 ± 0,2 ng/ml in data set [1] (setting [4]); 71% in data set [1] (setting [5]); 3% in data set [1] (setting [6]); 4,7 ± 0,6 ng/ml in data set [1] (setting [7]); < 0,1 ng/ml in data set [1] (setting [8]). Also, the HBsAg is reported as 27% in data set [1] (setting [9]); below 1% in data set [1] (setting [10]); 16,9 ± 2,6 ng/ml in data set [1] (setting [11]); 96% in data set [1] (setting [12]); < 0,1 ng/ml in data set [1] (setting [13]); below 1% in data set [1] (setting [14]). Besides, the HBsAg in data set [1] (setting [15]) was < 0,1 ng/ml; in data set [1] (setting [16]) it was below 1%. Further, the “^3H-DNA” value in the data set with Hep G2 (2.2.15)-Zellen (nucleoside 0,01 µM) was found to be 17215 ± 1760 dpm/Kultur; with Hep G2 (2.2.15)-Zellen (nucleoside 0,1 µM), 16230 ± 1745 dpm/Kultur; with Hep G2 (2.2.15)-Zellen (nucleoside 0,03 µM), 18975 ± 1957 dpm/Kultur; with Hep G2 (2.2.15)-Zellen (nucleoside 0,3 µM), 19400 ± 1926 dpm/Kultur; in the data set with Hep G2 (2.2.15)-Zellen (nucleoside 0,003 µM) it was 19650 ± 1935 dpm/Kultur; in the data set on Hep G2 (2.2.15)-Zellen (nucleoside 1,0 µM) it was 9930 ± 1130 dpm/Kultur. For the same compound, the “^3H-DNA” value with Hep G2 (2.2.15)-Zellen (nucleoside 3,0 µM) turned out to be 4265 ± 555 dpm/Kultur.

For the compound `Cc1cn([C@H]2C[C@H](N)[C@@H](CO)O2)c(=O)nc1N` [2′,3′-Didesoxy-3′-amino-5-methylcytidin], the CD₅₀ in the data set with MT4 Zellen (human, 48 h) is on record as 1,2 µM. Also, the HBsAg in data set [1] (setting [3]) was 8,5 ± 1,3 ng/ml; in data set [1] (setting [4]) it was 4,8 ± 0,6 ng/ml; in data set [1] (setting [5]), 44%; in data set [1] (setting [6]) it was 25%; in data set [1] (setting [7]), 7,0 ± 1,1 ng/ml; in data set [1] (setting [8]) it was 3,2 ± 0,4 ng/ml. For the same compound, the HBsAg is on record as 36% in data set [1] (setting [9]); 17% in data set [1] (setting [10]); 13,9 ± 2,9 ng/ml in data set [1] (setting [11]); 72% in data set [1] (setting [12]); 0,3 ± 0,1 ng/ml in data set [1] (setting [13]); 2% in data set [1] (setting [14]). Further, the HBsAg in data set [1] (setting [15]) is recorded as < 0,1 ng/ml; in data set [1] (setting [16]), below 1%. In addition, the “^3H-DNA” value in the data set with Hep G2 (2.2.15)-Zellen (nucleoside 0,01 µM) is 15445 ± 1830 dpm/Kultur; in the data set on Hep G2 (2.2.15)-Zellen (nucleoside 0,1 µM), 14350 ± 1570 dpm/Kultur; in the data set on Hep G2 (2.2.15)-Zellen (nucleoside 0,03 µM), 14180 ± 1650 dpm/Kultur; in the data set on Hep G2 (2.2.15)-Zellen (nucleoside 0,3 µM), 12160 ± 1860 dpm/Kultur; in the data set on Hep G2 (2.2.15)-Zellen (nucleoside 0,003 µM), 16020 ± 1790 dpm/Kultur; in the data set on Hep G2 (2.2.15)-Zellen (nucleoside 1,0 µM) it was 8150 ± 1125 dpm/Kultur. Also, in the data set with Hep G2 (2.2.15)-Zellen (nucleoside 3,0 µM), the “^3H-DNA” value stood at 2100 ± 430 dpm/Kultur.

Turning to `Cc1cn([C@H]2C[C@H](F)[C@@H](CO)O2)c(=O)nc1N` [2′,3′-Didesoxy-3′-fluor-5-methylcytidin], the IC50 on HBV-Polymerase came out at 30 nM. The CD₅₀ in the data set on MT4 Zellen (setting [17]) was 190 µM; in data set [2], above 500 µM. For the same compound, the HBsAg in data set [1] (setting [3]) is on record as 7,0 ± 0,9 ng/ml; in data set [1] (setting [4]) it was 0,4 ± 0,1 ng/ml; in data set [1] (setting [5]), 36%; in data set [1] (setting [6]), 2%; in data set [1] (setting [7]), 2,4 ± 0,3 ng/ml; in data set [1] (setting [8]) it was < 0,1 ng/ml. Also, the HBsAg was 12% in data set [1] (setting [9]); below 1% in data set [1] (setting [10]); 14,3 ± 2,4 ng/ml in data set [1] (setting [11]); 74% in data set [1] (setting [12]); < 0,1 ng/ml in data set [1] (setting [13]); below 1% in data set [1] (setting [14]). Further, the HBsAg in data set [1] (setting [15]) is given as < 0,1 ng/ml; in data set [1] (setting [16]) it was below 1%. The “^3H-DNA” value in the data set with Hep G2 (2.2.15)-Zellen (nucleoside 0,01 µM) is 15060 ± 1895 dpm/Kultur; in the data set with Hep G2 (2.2.15)-Zellen (nucleoside 0,1 µM) it was 14350 ± 1520 dpm/Kultur; in the data set with Hep G2 (2.2.15)-Zellen (nucleoside 0,03 µM) it was 15580 ± 1910 dpm/Kultur; in the data set with Hep G2 (2.2.15)-Zellen (nucleoside 0,3 µM), 13175 ± 1975 dpm/Kultur; in the data set with Hep G2 (2.2.15)-Zellen (nucleoside 0,003 µM), 13270 ± 1650 dpm/Kultur; in the data set on Hep G2 (2.2.15)-Zellen (nucleoside 1,0 µM) it was 8295 ± 1010 dpm/Kultur. The “^3H-DNA” value with Hep G2 (2.2.15)-Zellen (nucleoside 3,0 µM) was found to be 2470 ± 295 dpm/Kultur.

Take `Cc1cn([C@H]2C[C@H](Cl)[C@@H](CO)O2)c(=O)nc1N` [2′,3′-Didesoxy-3′chlor-5-methylcytidin, 3′-Chlor-2′,3′-didesoxy-5-methylcytidin]: the CD₅₀ with MT4 Zellen (setting [17]) amounted to 625 µM. The HBsAg is reported as 9,6 ± 1,2 ng/ml in data set [1] (setting [3]); 3,4 ± 0,4 ng/ml in data set [1] (setting [4]); 50% in data set [1] (setting [5]); 18% in data set [1] (setting [6]); 7,1 ± 0,8 ng/ml in data set [1] (setting [7]); 3,2 ± 0,5 ng/ml in data set [1] (setting [8]). Moreover, the HBsAg was 37% in data set [1] (setting [9]); 17% in data set [1] (setting [10]); 18,5 ± 2,6 ng/ml in data set [1] (setting [11]); 96% in data set [1] (setting [12]); 0,4 ± 0,1 ng/ml in data set [1] (setting [13]); 2% in data set [1] (setting [14]). The HBsAg is < 0,1 ng/ml in data set [1] (setting [15]) and below 1% in data set [1] (setting [16]). Further, the “^3H-DNA” value was 14820 ± 1550 dpm/Kultur with Hep G2 (2.2.15)-Zellen (nucleoside 0,01 µM); 15185 ± 1735 dpm/Kultur in the data set on Hep G2 (2.2.15)-Zellen (nucleoside 0,1 µM); 14370 ± 1620 dpm/Kultur with Hep G2 (2.2.15)-Zellen (nucleoside 0,03 µM); 13895 ± 1540 dpm/Kultur with Hep G2 (2.2.15)-Zellen (nucleoside 0,3 µM); 13450 ± 1465 dpm/Kultur with Hep G2 (2.2.15)-Zellen (nucleoside 0,003 µM); 12270 ± 1590 dpm/Kultur with Hep G2 (2.2.15)-Zellen (nucleoside 1,0 µM). Also, in the data set on Hep G2 (2.2.15)-Zellen (nucleoside 3,0 µM), the “^3H-DNA” value was determined as 10065 ± 1855 dpm/Kultur.
